Measured values: PMC6920704, “1-(Piperidin-3-yl)thymine amides as inhibitors of M. tuberculosis thymidylate kinase” (Journal of Enzyme Inhibition and Medicinal Chemistry, 2019)

Molecular target: T1, MtbTMPK (M. tuberculosis thymidylate kinase) (Mycobacterium tuberculosis, UniProt P9WKE1)
T1 construct: gene tmk
Test: coupled spectrophotometric assay (NADH, […] nm)
Assay type: biochemical
Details: read-out: IC50MtbTMPK

T1 sequence (P9WKE1 whole entry, looked up): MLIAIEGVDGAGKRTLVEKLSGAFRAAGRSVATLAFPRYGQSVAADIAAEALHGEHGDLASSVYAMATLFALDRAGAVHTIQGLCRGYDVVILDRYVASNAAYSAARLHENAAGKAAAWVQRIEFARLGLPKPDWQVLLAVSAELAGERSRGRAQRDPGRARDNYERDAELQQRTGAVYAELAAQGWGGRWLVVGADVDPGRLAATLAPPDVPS

Row | Structure (SMILES) | IC50
1 | COc1cccc(Oc2cccc(C(=O)N3CCCC(n4cc(C)c(=O)[nH]c4=O)C3)c2)c1 (stereo not drawn) [4b] | 15 ± 1 µM
2 | Cc1cn(C2CCCN(C(=O)c3cccc(Oc4ccc(Cl)c(Cl)c4)c3)C2)c(=O)[nH]c1=O (stereo not drawn) [4g] | 18 ± 1 µM
3 | Cc1cn(C2CCCN(C(=O)c3cccc(Oc4cc(Cl)cc(Cl)c4)c3)C2)c(=O)[nH]c1=O (stereo not drawn) [4i] | 13 ± 1 µM
4 | Cc1cn(C2CCCN(C(=O)c3cccc(Oc4ccccc4)c3)C2)c(=O)[nH]c1=O (racemic) [compound 3, 3] | 28 ± 2 µM
5 | Cc1cn(C2CCCN(C(=O)c3cccc(Oc4ccc(F)cc4)c3)C2)c(=O)[nH]c1=O (stereo not drawn) [4d] | 18 ± 1 µM
6 | Cc1cn(C2CCCN(C(=O)c3cccc(Oc4cc(F)cc(F)c4)c3)C2)c(=O)[nH]c1=O (stereo not drawn) [4j] | 31 ± 2 µM
7 | Cc1cn(C2CCCN(C(=O)c3cccc(Oc4cccc(N(C)C)c4)c3)C2)c(=O)[nH]c1=O (stereo not drawn) [4a] | 39 ± 3 µM
8 | Cc1cn(C2CCCN(C(=O)c3cccc(Oc4ccc([N+](=O)[O-])cc4)c3)C2)c(=O)[nH]c1=O (stereo not drawn) [4e] | 30 ± 3 µM
9 | Cc1cn(C2CCCN(C(=O)c3cccc(Oc4ccc(Cl)cc4)c3)C2)c(=O)[nH]c1=O (stereo not drawn) [4c] | 39 ± 19 µM
10 | Cc1cn(C2CCCN(C(=O)c3cccc(Oc4cccc(C(F)(F)F)c4)c3)C2)c(=O)[nH]c1=O (stereo not drawn) [4f] | 53 ± 12 µM
11 | Cc1cn(C2CCCN(C(=O)c3cccc(Oc4ccc(F)c(F)c4)c3)C2)c(=O)[nH]c1=O (stereo not drawn) [4h] | 23 ± 1 µM

Molecular target: T1, MtbTMPK (M. tuberculosis thymidylate kinase)
Test: coupled spectrophotometric assay (NADH, […] nm)
Assay type: biochemical
Details: 0.5 mM ATP, 0.05 mM dTMP, 2 mM MgCl2, 50 mM KCl, 50 mM Tris-HCl pH 7.4, 30 °C; unreliable (above the highest tested concentration of 0.12 mM)

Row | Structure (SMILES) | IC50MtbTMPK
12 | Cc1cn(C2CCCN(C(=O)c3cccc(Oc4cc(C(F)(F)F)cc(C(F)(F)F)c4)c3)C2)c(=O)[nH]c1=O (stereo not drawn) [4k] | 158 ± 89 µM
